# According to patent publication US20260174682A1, “GAMMA-AMINOBUTYRIC ACID DERIVATIVE COMPRISING POLYCYCLIC STRUCTURE, METHOD FOR PREPARING SAME, AND USE THEREOF” (ZHONGSHAN INSTITUTE FOR DRUG DISCOVERY, SIMM, CAS., priority 2022, published 2026):
# Values joined by “and” are separate entries in the source; they are usually repeats but may differ in a detail not shown here. Identical values can stand only once.
# Experiments:
# [1] = Pharmacokinetic test on rats; type: in vivo, rat; details: male SD rats; for t1/2: data based on free base
# Description: Male SD rats were fasted for 12 h before the test and then allowed to drink water freely. The compound (+)—I-3 p-toluenesulfonate or (+)—I-4 p-toluenesulfonate of the present application was dissolved with a 10% distilled water solution of 1,2-propanediol and then administered orally or intravenously to the male SD rats, with 3 rats in each group. At 15 min, 30 min, 1 hour, 2 hours, 3 hours, 4 hours, 6 hours, 8 hours and 24 hours after the oral administration or at 5 min, 15 min, 30 min, 1 hour, 2 hours, 3 hours, 4 hours, 6 hours, 8 hours and 24 hours after the intravenous administration, 0.2 mL of blood was taken from retroocular venous plexuses, placed in an EDTA-K2 test tube, centrifuged at 11,000 rpm for 5 min to separate plasma, and frozen in a refrigerator at −20° C. The concentration of a drug prototype was determined by HPLC-ESI-MS according to a verified method, and pharmacokinetic parameters were calculated by WinNonLin.
# male SD rats = test: Acute toxicity test on rats; details: for Observation of clinical symptoms 0.5 h / Observation of clinical symptoms 1 h / Observation of clinical symptoms 2 h / Observation of clinical symptoms 4 h / Observation of clinical symptoms 6 h / Observation of clinical symptoms 24 h: per animal
# Description: After adapting to the environment for one week, the SD rats were used in a preliminary acute toxicity test. The compounds were newly formulated on the day of the test. […] After being labeled and weighed, the animals were randomly grouped with 2-4 animals in each group. […] Clinical symptoms of each animal were observed and recorded at 0.5 hours, 1 hour, 2 hours, 4 hours, 6 hours and 24 hours after the administration, respectively. Clinical symptom codes were as follows: 0 no abnormality, 1 mild tremor, 2 unsteady gait, 3 prone position, 4 startle reflex, 5 difficult breathing, 6 righting reflex disappeared, 7 eyelid closure, 8 shortness of breath, and x animal death.
# [2] = target: T1, human recombinant calcium ion channel Cav2.2/β3/α2δ-1 (Homo sapiens, UniProt P54289); test: In vitro binding to human recombinant calcium ion channel Cav2.2/β3/α2δ-1 ([3H]gabapentin competition)
# T1 construct: expressed in transfected cells; host or cells: CHO cells (membranes)
# Text: Example 28 In Vitro Binding of Compounds to Human Recombinant Calcium Ion Channel Cav2.2/β3/α2δ-1
# There are four subtypes of the voltage-gated calcium ion channel α2δ subunit, α2δ-1, α2δ-2, α2δ-3 and α2δ-4, in which α2δ-1 is the subtype that mediates chronic neuropathic pain (Field, M. J. et al.; Proc. Natl. Acad. Sci. U.S.A. 2006, 103, 17537-17542). Therefore, the binding strength of a compound to α2δ-1 is a direct indicator for measuring an analgesic effect thereof on the chronic neuropathic pain (Calandre, E. P. et al.; Expert Rev. Neuroether. 2016, 16, 1263-1277).
# The in vitro binding strength of the compound of the present application to human recombinant calcium ion channel Cav2.2/β3/α2δ-1 is basically operated according to a reported method (Gee, N. S. et al.; J. Biol. Chem. 1996, 271, 5768-5776; Marais, E. et al.; Mol. Pharmacol. 2001, 59, 1243-1248). CHO cells expressing the human recombinant calcium ion channel Cav2.2/β3/α2δ-1 were used in the test. After routine separation of cell membranes, 3 μg of the cell membranes were added into each well with a modified HEPES/KOH buffer solution (pH 7.4) as a solution of the test system. Then, 5 nM [^3H]gabapentin and the compound to be tested at 6 concentrations (3, 9, 27, 81, 243, and 729 nM) were added, and the test system was incubated at 25° C. for 120 min. Non-specific binding was obtained by replacing the compound to be tested in the above test system with […] gabapentin. After the incubation was completed, the cell membranes were collected by filtration and washed with 50 mM Tris-HCl (pH 7.4), and then the radioactivity of [^3H]gabapentin bound to the cell membranes was tested by a liquid scintillation technology. […] An inhibition rate of the compound of the present application on the binding of the [^3H]gabapentin to the human recombinant calcium ion channel Cav2.2/β3/α2δ-1 was calculated according to the following formula: […]
# wherein • I is the radioactivity corresponding to that the compound to be tested and [^3H]gabapentin are simultaneously co-incubated with the human recombinant calcium ion channel Cav2.2/β3/α2δ-1, • I0 is the radioactivity corresponding to co-incubation of [^3H]gabapentin and the human recombinant calcium ion channel Cav2.2/β3/α2δ-1 without adding the compound to be tested into the incubation system, and • IU is the radioactivity corresponding to that 10 μM gabapentin and [^3H]gabapentin are simultaneously co-incubated with the human recombinant calcium ion channel Cav2.2/β3/α2δ-1.
# The concentration of the compound to be tested that inhibits 50% of the binding of [^3H]gabapentin to the human recombinant calcium ion channel Cav2.2/β3/α2δ-1 is defined as IC50, and the IC50 is calculated by nonlinear least squares regression analysis using the above inhibition rate (MathIQ™, ID Business Solutions Ltd., UK).
# postherpetic neuralgia = details: 150-600 mg per day; cited from earlier work
# [3] = gavage vs intravenous injection
# [4] = intravenous injection, 1.10 / 1.09 mg/kg
# [5] = oral gavage 163.8 mg/kg (calculated by free base)
# [6] = oral gavage 300 mg/kg (calculated by free base)
# T1 sequence (P54289 25-956 limits assumed): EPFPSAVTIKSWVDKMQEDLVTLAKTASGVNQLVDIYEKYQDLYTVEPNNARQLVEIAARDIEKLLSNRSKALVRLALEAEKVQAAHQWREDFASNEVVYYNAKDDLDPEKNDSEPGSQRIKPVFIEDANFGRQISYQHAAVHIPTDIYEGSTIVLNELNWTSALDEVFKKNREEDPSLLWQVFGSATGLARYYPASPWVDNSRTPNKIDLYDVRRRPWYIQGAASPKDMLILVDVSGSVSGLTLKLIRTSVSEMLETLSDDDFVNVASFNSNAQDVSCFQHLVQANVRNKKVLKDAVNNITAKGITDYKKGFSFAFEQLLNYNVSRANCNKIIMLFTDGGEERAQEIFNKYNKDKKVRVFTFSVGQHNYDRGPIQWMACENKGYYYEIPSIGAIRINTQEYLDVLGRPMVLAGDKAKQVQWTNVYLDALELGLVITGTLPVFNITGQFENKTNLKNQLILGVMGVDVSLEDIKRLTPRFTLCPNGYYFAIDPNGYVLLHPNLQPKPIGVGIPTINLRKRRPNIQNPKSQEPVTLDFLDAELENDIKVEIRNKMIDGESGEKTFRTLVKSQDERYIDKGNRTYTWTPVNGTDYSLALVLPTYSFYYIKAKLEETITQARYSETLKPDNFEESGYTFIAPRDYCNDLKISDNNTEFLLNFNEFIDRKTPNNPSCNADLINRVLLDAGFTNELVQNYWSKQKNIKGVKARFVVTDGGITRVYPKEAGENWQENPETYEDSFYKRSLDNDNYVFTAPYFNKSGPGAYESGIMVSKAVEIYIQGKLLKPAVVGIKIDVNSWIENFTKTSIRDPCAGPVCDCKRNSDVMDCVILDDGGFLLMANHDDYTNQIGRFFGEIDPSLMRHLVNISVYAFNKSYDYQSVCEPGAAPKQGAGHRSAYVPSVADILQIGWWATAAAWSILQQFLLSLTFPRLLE
# T1 sequence (P54289 957-1103 partner limits assumed): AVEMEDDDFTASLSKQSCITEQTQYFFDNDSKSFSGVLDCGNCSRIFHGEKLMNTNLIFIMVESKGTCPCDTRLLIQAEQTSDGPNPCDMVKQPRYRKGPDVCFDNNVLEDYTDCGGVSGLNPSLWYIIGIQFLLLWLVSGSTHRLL
# T1 sequence (Q00975 whole entry partner): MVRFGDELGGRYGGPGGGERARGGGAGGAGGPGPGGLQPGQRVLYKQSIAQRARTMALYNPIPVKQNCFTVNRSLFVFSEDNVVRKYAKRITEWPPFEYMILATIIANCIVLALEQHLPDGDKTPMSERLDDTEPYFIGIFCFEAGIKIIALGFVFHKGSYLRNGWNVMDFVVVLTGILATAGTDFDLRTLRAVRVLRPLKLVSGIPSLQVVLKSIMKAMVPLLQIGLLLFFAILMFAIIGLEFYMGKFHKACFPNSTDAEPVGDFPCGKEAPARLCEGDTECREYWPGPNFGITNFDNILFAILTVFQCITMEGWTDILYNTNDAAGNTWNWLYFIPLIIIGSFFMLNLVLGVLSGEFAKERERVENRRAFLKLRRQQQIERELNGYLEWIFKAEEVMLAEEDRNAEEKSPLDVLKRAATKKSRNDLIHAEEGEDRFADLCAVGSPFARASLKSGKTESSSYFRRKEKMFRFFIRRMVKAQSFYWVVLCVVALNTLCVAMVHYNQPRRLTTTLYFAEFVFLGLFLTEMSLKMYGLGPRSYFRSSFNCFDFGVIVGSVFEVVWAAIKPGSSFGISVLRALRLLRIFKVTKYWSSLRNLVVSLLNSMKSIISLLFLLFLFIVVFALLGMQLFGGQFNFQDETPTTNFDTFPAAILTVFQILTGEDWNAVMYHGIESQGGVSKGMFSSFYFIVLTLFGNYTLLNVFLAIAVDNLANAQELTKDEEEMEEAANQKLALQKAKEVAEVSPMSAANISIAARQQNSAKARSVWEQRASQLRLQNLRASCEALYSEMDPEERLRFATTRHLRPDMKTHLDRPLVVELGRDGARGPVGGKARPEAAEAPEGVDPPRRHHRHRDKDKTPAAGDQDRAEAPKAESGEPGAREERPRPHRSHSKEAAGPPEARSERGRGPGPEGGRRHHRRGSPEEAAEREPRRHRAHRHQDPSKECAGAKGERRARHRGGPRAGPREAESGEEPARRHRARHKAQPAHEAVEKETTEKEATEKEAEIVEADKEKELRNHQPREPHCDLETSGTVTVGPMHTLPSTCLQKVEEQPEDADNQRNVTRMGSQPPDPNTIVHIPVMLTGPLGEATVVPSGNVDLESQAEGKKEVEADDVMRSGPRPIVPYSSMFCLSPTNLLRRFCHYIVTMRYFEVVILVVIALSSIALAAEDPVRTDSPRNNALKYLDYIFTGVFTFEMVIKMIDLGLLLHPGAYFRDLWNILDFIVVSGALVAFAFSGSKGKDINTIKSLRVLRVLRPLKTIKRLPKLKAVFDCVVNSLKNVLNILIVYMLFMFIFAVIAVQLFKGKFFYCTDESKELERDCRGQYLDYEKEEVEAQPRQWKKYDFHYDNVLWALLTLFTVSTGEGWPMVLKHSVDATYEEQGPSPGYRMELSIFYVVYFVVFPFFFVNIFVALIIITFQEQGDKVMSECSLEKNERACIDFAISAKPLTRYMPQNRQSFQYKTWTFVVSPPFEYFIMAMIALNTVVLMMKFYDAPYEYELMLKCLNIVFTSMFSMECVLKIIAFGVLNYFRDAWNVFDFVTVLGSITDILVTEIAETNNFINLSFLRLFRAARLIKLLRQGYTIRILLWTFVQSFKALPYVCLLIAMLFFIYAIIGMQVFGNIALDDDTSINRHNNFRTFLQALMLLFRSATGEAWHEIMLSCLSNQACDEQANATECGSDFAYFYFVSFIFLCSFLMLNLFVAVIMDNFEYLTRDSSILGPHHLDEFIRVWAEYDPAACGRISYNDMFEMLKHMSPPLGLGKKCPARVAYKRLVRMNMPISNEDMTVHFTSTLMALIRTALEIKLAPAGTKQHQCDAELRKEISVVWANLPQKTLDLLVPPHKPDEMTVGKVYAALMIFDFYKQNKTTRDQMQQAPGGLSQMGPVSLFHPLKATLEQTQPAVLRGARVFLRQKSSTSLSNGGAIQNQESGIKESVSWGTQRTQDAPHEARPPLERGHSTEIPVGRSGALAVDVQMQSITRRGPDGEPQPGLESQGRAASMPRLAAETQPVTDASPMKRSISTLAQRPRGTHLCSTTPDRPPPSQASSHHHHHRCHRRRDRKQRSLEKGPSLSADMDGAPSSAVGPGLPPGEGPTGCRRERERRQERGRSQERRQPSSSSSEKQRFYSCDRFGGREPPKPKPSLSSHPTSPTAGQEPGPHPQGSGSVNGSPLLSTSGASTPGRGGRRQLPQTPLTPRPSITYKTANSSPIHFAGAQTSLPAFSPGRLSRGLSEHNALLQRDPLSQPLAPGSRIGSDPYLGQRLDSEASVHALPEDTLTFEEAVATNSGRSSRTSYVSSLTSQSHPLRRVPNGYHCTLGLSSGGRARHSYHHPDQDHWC
# T1 sequence (P54284 whole entry partner): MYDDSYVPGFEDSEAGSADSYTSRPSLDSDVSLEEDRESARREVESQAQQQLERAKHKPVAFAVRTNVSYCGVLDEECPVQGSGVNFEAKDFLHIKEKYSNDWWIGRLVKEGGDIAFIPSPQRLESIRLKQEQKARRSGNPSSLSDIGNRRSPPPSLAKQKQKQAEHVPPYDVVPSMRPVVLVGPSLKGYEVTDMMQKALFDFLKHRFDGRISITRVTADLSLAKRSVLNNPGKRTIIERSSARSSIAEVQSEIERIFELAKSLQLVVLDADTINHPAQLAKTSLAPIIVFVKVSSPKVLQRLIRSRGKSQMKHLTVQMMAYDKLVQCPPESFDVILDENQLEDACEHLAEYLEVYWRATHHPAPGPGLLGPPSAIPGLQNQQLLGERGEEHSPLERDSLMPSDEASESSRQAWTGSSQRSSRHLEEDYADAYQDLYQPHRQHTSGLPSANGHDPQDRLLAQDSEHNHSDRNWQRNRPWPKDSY
structure (smiles),measurement,setting,value
"Cc1ccc(S(=O)(=O)O)cc1.NCC1(CC(=O)O)CC2C3C=CC(C3)C21 (single isomer, unassigned; (+)) [(+)-I-4 p-toluenesulfonate]",F (%) calculated based on AUC0-t,[1]; [3],110.25% (calculated
same,F (%) calculated based on AUC0-∞,[1]; [3],110.36% (calculated
same,t1/2,"[1]; gavage, 2.74 mg/kg ((+)-I-3) / 2.73 mg/kg ((+)-I-4)",1.08 h
same,AUC0-t,"[1]; gavage, 2.74 / 2.73 mg/kg",7290 ng·h/mL
same,AUC0-∞,"[1]; gavage, 2.74 / 2.73 mg/kg",7380 ng·h/mL
same,Cmax,"[1]; gavage, 2.74 / 2.73 mg/kg",2350 ng/mL
same,MRT0-∞,"[1]; gavage, 2.74 / 2.73 mg/kg",2.38 h
same,Tmax,"[1]; gavage, 2.74 / 2.73 mg/kg",1 h
same,t1/2,"[1]; intravenous injection, 1.10 mg/kg ((+)-I-3) / 1.09 mg/kg ((+)-I-4)",0.94 h
same,AUC0-t,[1]; [4],2640 ng·h/mL
same,AUC0-∞,[1]; [4],2670 ng·h/mL
same,MRT0-∞,[1]; [4],1.63 h
same,abnormal behaviors at 0-24 h after the administration,male SD rats; [5],no obvious abnormal behaviors
same,Observation of clinical symptoms 0.5 h,male SD rats; [5],0
same,Observation of clinical symptoms 1 h,male SD rats; [5],0
same,Observation of clinical symptoms 2 h,male SD rats; [5],0
same,Observation of clinical symptoms 4 h,male SD rats; [5],0
same,Observation of clinical symptoms 6 h,male SD rats; [5],0
same,Observation of clinical symptoms 24 h,male SD rats; [5],0
same,animal death,male SD rats; [6],no animals are dead
same,Observation of clinical symptoms 0.5 h,male SD rats; [6],0
same,Observation of clinical symptoms 1 h,male SD rats; [6],3
same,Observation of clinical symptoms 2 h,male SD rats; [6],0
same,Observation of clinical symptoms 6 h,male SD rats; [6],0
same,Observation of clinical symptoms 24 h,male SD rats; [6],0
same,Observation of clinical symptoms 4 h,"male SD rats; oral gavage 300 mg/kg (calculated by free base), 300 mg/kg",3 and 0
CC(C)C[C@H](CN)CC(=O)O [Pregabalin],IC50,[2],38 nM
same,clinical effective rate,postherpetic neuralgia,26%-50
